Results: patent publication US10562863B2, “Heterobifunctional linker” (THE GOVERNORS OF THE UNIVERSITY OF ALBERTA, priority 2016, dated 2020)

Biological target: T1, branched-chain amino acid-binding protein LivF (Escherichia coli, UniProt P0AD96)
T1 construct: inferred from the pET15b vector and Ni-NTA purification; made in house; host or cells: E. coli BL21
Assay: Competitive lateral flow assay, LivF test band
Parameters: species or system E. coli
Conditions: free Leu 0.5 and 2 mg/ml; 1M urea; citrate 2 mg/ml
Text: We generated a useful metabolite sensor using a combination of a lateral flow assay (LFA), a metabolite-L1-AuNP conjugate (Leucine) and metabolite-specific protein. […] In our assay, the branched-chain amino acid-binding protein LivF35 was loaded onto nitrocellulose strips as the detection protein (“Test band”) and as the “Control band” the glutamate/aspartate binding protein Gltl36 was used, since the gold nanoparticles are stabilized with glutamate on their surface and that can be detected by Gltl as flow control. Leucine-decorated gold nanoparticles were loaded at the end of the strip in solution, with or without competing free leucine and the flow assay was performed.
To prepare the LFA strips, lug of each protein (from a 0.5 ug/ul solution in 50 mM phosphate buffer, pH 7.5) was loaded onto FF80 nitrocellulose strips as a 0.5 cm line. 20 ul of a suspension of metabolite-coated AuNPs (3 mg/mL) was loaded onto the end of the membrane strips and allowed to flow through via capillary action. Bands showing the captured gold nanoparticles were documented with an electronic flatbed scanner (Canon Canoscan 5600).

T1 sequence (P0AD96 24-367): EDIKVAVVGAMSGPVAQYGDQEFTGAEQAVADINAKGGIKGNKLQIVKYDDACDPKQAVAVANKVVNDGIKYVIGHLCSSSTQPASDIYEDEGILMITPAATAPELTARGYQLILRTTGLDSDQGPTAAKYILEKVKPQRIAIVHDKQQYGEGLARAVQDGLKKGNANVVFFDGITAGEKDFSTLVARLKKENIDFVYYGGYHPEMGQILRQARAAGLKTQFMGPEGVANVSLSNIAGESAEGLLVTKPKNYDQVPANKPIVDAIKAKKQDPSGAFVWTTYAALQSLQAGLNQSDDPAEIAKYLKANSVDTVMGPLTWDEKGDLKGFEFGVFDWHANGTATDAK

| SMILES | Effect of free metabolite on LivF detection of leucine-coated AuNP |
| --- | --- |
| O=C(O)CC(O)(CC(=O)O)C(=O)O [citrate] | not hampered |
| CC(C)C[C@H](N)C(=O)O [free leucine, leucine] | abrogated |
| NC(N)=O [urea] | not hampered |
